Data: publication PMC6514680, “Labdane and Abietane Diterpenoids from Juniperus oblonga and Their Cytotoxic Activity” (Molecules, 2019)
Like-named read-outs stand apart in the source and are kept apart here.

Key:
[1] = MTT cytotoxicity assay, LO2; design: dose or concentration left out as unconfirmed; details: human, LO2 normal liver cells
[2] = MTT cytotoxicity assay, MCF-7; design: cytotoxicity at 72 h: dose or concentration left out as unconfirmed; details: human, MCF-7 cells
Description: (§1) MTT assay was used to measure the in vitro cytotoxicity of the isolated compounds. Human breast adenocarcinoma cell line (MCF-7), human liver hepatocellular carcinoma cell line (HepG2), and human cervical cancer cell line (HeLa) were cultured in Dulbecco’s modified Eagle’s medium (DMEM) and Roswell Park Memorial Institute medium (RPMI 1640), which was supplemented with 10% fetal bovine serum (FBS) at 37 °C in a humidified atmosphere of 5% CO2. The cells were cultured in 96-well plates for 24 h and then treated with test compounds at various concentrations (8–125 μM) for 72 h. After incubation for another 4 h with a 20 µL aliquot of the MTT [3-(4,5-dimethylthiazol-2-yl)-2,5-diphenyl tetrazolium bromide] solution (5 mg/mL in PBS), the medium was discarded, and 150 µL of DMSO was added to dissolve the produced formazan. The absorbance was measured at 490 nm and 570 nm using a microplate reader. Doxorubicin was used as a positive control. Each experiment was carried out in triplicate. The IC50 values were calculated using Graphpad Prism 5 software.

[3] = MTT cytotoxicity assay, HeLa; design: cytotoxicity at 72 h / Cytotoxicity (%I) HeLa: dose or concentration left out as unconfirmed; details: human, HeLa cells
Description: as §1

[4] = MTT cytotoxicity assay, HepG2; design: cytotoxicity at 72 h / Cytotoxicity (%I) HepG2: dose or concentration left out as unconfirmed; details: human, HepG2 cells
Description: as §1

[5] = system: three human tumor cell lines (HepG2, MCF-7, and HeLa); assay: MTT cytotoxicity assay, summary over three tumor cell lines
[6] = system: normal human liver cell line (LO2); assay: MTT cytotoxicity assay, LO2; design: dose or concentration left out as unconfirmed; details: LO2 normal liver cells; MTT
[7] = system: human breast cancer cell line (MCF-7); assay: MTT cytotoxicity assay, MCF-7; design: cytotoxicity at 72 h: dose or concentration left out as unconfirmed; details: MCF-7; 4 mg/mL; MTT
Description: as §1

[8] = system: human cervical carcinoma cancer cell line (HeLa); assay: MTT cytotoxicity assay, HeLa; design: cytotoxicity at 72 h / Cytotoxicity (%I) HeLa: dose or concentration left out as unconfirmed; details: HeLa; MTT
Description: as §1

[9] = system: human hepatocellular carcinoma cell line (HepG2); assay: MTT cytotoxicity assay, HepG2; design: cytotoxicity at 72 h / Cytotoxicity (%I) HepG2: dose or concentration left out as unconfirmed; details: HepG2; MTT
Description: as §1

[10] = system: human hepatocellular carcinoma cell line (HepG2); design: Cytotoxicity (%I) HepG2: dose or concentration left out as unconfirmed
Description: as §1

[11] = system: human breast cancer cell line (MCF-7)
Description: as §1

[12] = system: human cervical carcinoma cancer cell line (HeLa); design: Cytotoxicity (%I) HeLa: dose or concentration left out as unconfirmed
Description: as §1

[13] = system: normal human liver cell line (LO2); design: dose or concentration left out as unconfirmed

Molecule	cytotoxicity at 72 h [1] [%]	cytotoxicity at 72 h [2] [%]	cytotoxicity at 72 h [3] [%]	cytotoxicity at 72 h [4] [%]	other results
C=C1CCC2C(C)(C(=O)O)CCCC2(C)C1C=CC(C)=O [Compound 1, (4R,5S,9S,10R)-13-des-ethyl-13-oxolabda-8(17),11E-dien-19-oic acid]	20.6	28.4	26.4	18.4	
C=C1CC[C@@H]2[C@](C)(CCC[C@]2(C)C(=O)O)[C@H]1C/C=C(/C)C=O [Compound 2, 15-nor-14-oxolabda-8(17),12Z-dien-19-oic acid]	10.6	21.1	23.9	16.1	
CC(C)c1cc2c(cc1O)[C@@]1(C)CCCC(C)(C)[C@@H]1CC2=O [Compound 3, sugiol]	26.6	9.2	12.3	35	
CC(C)c1cc2c(cc1O)C1(C)CCCC(C)(C)C1=C(O)C2=O (centres unmarked) [Compound 6, 6,12-dihydroxyabieta-5,8,11,13-tetraen-7-one]	27.8	84	83.8	86.6	cytotoxicity in words ([5]; HepG2, MCF-7 and HeLa, MTT): moderate cytotoxicity; IC50 ([5]; Homo sapiens, read-out: IC50 values, range over all three cell lines): 24.4 to 58.4 µM; IC50 at 72 h [2]: 58.4 ± 2.45 µM; IC50 at 72 h [3]: 24.4 ± 2.05 µM; IC50 at 72 h [4]: 48.7 ± 1.31 µM
O=c1ccc2ccc(O)cc2o1 [Compound 13, umbelliferone]	26.6	18	3.6	32.7	
COc1cccc2c1C(=O)c1c(O)c3c(c(O)c1C2=O)C[C@@](O)(C(=O)CO)C[C@@H]3O[C@H]1C[C@H](N)[C@H](O)[C@H](C)O1 [Doxorubicin, reference compound]	46.7	46.5	49.5	42.2	IC50 at 72 h [2]: 3.44 ± 1.59 µM; IC50 at 72 h [3]: 3.64 ± 1.37 µM; IC50 at 72 h [4]: 3.18 ± 1.19 µM
helioxanthin [Compound 5]					Cytotoxicity (%I) LO2 [6]: 9.05%; Cytotoxicity (%I @ 4 mg/mL) MCF-7 [7]: 10.09%; Cytotoxicity (%I) HeLa [8]: 0.22%; Cytotoxicity (%I) HepG2 [9]: 0.11%
sempervirol [Compound 10]					Cytotoxicity (%I) HepG2 [10]: 48.67%; IC50 [10]: 64.9 ± 2.64 µM; Cytotoxicity (%I @ 4 mg/mL) MCF-7 [11]: 43.4%; IC50 [11]: 80 ± 1.2 µM; Cytotoxicity (%I) HeLa [12]: 63.4%; IC50 [12]: 56.9 ± 2.39 µM; cytotoxicity in words [5]: weaker activity; Cytotoxicity (%I) LO2 [13]: 19.08%
